Reference: patent publication US4822811A, “Carbazole lipoxygenase inhibiting compounds, compositions and use” (Abbott Laboratories, priority 1988, dated 1989)
pIC50: −log10 of the molar value.

What follows are compounds tested against T1, 5-lipoxygenase (Rattus norvegicus, UniProt P12527) (assay: Lipoxygenase IC50 Determination (in vitro 5-lipoxygenase inhibition, 20,000xg supernatant from homogenized RBL-1 cells)). Conditions: radiolabelled arachidonic acid, 2% DMSO, triplicate incubations, read-out: In vitro 5-lipoxygenase inhibitory potency IC50.
T1 construct: 20,000xg supernatant from 6×10^4 homogenized RBL-1 cells; endogenous in cells; host or cells: RBL-1 cells (20,000xg supernatant of homogenate)
T1 sequence (P12527 1-673): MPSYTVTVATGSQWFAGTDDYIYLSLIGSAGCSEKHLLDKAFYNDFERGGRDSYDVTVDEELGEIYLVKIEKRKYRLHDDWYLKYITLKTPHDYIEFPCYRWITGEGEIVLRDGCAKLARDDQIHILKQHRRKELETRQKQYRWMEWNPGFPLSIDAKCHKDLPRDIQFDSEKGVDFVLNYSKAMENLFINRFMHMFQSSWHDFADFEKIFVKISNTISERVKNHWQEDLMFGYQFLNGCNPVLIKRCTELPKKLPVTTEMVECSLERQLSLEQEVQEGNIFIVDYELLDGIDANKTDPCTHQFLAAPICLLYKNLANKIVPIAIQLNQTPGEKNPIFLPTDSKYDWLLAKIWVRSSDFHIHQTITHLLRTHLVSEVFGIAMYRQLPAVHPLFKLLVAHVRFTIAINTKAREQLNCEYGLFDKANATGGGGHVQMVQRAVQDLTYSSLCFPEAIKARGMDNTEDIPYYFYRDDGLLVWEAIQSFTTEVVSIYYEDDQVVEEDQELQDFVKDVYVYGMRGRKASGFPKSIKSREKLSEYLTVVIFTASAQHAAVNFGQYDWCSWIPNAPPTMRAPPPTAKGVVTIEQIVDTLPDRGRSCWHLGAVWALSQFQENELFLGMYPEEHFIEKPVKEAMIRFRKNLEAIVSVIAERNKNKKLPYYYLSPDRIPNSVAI
Format: biochemical
Procedure: Lipoxygenase IC50 Determination
Assays to determine 5-lipoxygenase activity were performed in […] incubations containing the 20,000xg supernatant from 6×10^4 homogenized RBL-1 cells, 2% DMSO vehicle and various concentrations of the test compound. Reactions were initiated by addition of radiolabelled arachidonic acid and terminated by acidification and ether extraction. Reaction products were separated from nonconverted substrate by thin layer chromatography and measured by liquid scintillation spectroscopy. All treatments were evaluated in triplicate incubations. Inhibition of 5-lipoxygenase activity was computed by comparison of the quantity of products formed in the treatment incubations to the mean product formation in vehicle control groups (n=8). IC50 values and 95% confidence limits were computed by linear regression analysis of percentage inhibition versus log inhibitor concentration plots. The results of the assay indicate that the compounds are inhibitors of 5-lipoxygenase.

Row | pIC50 | Structure (SMILES)
1 | 6.54 | CC(=O)N(O)C(C)c1ccc2oc3ccccc3c2c1 (stereo not drawn) [Example 1]
2 | 6.41 | CCn1c2ccccc2c2cc(CN(O)C(=O)NC)ccc21 [Example 4, N-hydroxy-N-(9-ethylcarbaz-3-ylmethyl) N-methyl urea]
3 | 6.42 | CCn1c2ccccc2c2cc(C(C)N(O)C(N)=O)ccc21 (stereo not drawn) [Example 5, N-hydroxy-N-[1-(9-ethylcarbaz-3-yl)ethyl] urea]
